Data set [1] has as its system oxazolone-induced ear swelling in CD-1 mice. As to the kind of experiment: mouse oxazolone-induced contact hypersensitization (MOCH), ear swelling. The following applies: for inhibition in vivo at 1 mg: topical to ear, mouse, 24 hours after oxazolone challenge, read-out: Oxazolone Ear Swelling (MOCH) % inhibition vs. Vehicle at 1 mg; for topical antiinflammatory activity in the oxazolone model (in words): mouse ear. It is filed as in vivo. The procedure:
Several triphenylpropanamide compounds of this invention, having varying affinities for the human glucocorticoid receptor, were tested for topical antiinflammatory activity in mouse ear inflammation models. […] Compounds having receptor affinities closer to hydrocortisone were as nearly active as hydrocortisone in suppressing mouse oxazolone-induced contact hypersensitization (MOCH) and phorbol ester-induced ear edema. The in vivo studies of this example were conducted as follows.
In determining the MOCH using the compounds of this invention, albino male CD-1 mice, 7-9 weeks old were induced on the shaved abdomen with 50 μl of 3% oxazolone in acetone/corn oil (Day 0). On Day 5, a 20 μl volume of 2% oxazolone in acetone was applied to the dorsal left ear of the mouse. Compounds (made in ethanol/propylene glycol, 70:30) were applied to the left ear in 20 μl volume, one hour after oxazolone challenge. The right ear was not treated. The mice were sacrificed by carbon dioxide inhalation 24 hours after oxazolone challenge, the left and right ears were removed and a 7 mm biopsy was removed from each ear and weighed. The difference in biopsy weights between the right and left ears was calculated. Antiinflammatory effects of compounds were evident as an inhibition of the increase in ear weight.

Entries after “also recorded” stand apart in the source; their conditions may differ.

In general, melting point refers to the temperature, or range, at which the solid turns liquid. `O=C(Cc1ccccc1Cl)NCC(c1ccccc1)C(c1ccccc1)c1ccccc1` (stereo not shown) [Compound 2] yielded a melting point of 140.5 to 141.2 °C. Also, the inhibition in vivo at 1 mg in data set [1] was determined as 4%.

Take `O=C(Cc1ccc(Cl)cc1)NCC(c1ccccc1)C(c1ccccc1)c1ccccc1` (stereo not shown) [Compound 3]: the melting point lay in the range of 168.4 to 170.9 °C.

As for `Cc1ccc(CC(=O)NCC(c2ccccc2)C(c2ccccc2)c2ccccc2)cc1` (stereo not shown) [Compound 4], the melting point was 142.3 to 143.6 °C. For the same molecule, the inhibition in vivo at 1 mg in data set [1] was 1%.

As to `COc1ccc(CC(=O)NCC(c2ccccc2)C(c2ccccc2)c2ccccc2)cc1` (stereo not shown) [Compound 6], the melting point is 157 to 159 °C. Moreover, the inhibition in vivo at 1 mg in data set [1] was 38%.

As to `COc1ccc(CC(=O)NCC(c2ccccc2)C(c2ccccc2)c2ccccc2)cc1OC` (stereo not shown) [Compound 7], the melting point lay in the range of 123 to 124.5 °C.

Molecule `O=C(Cc1c(Cl)cccc1Cl)NCC(c1ccccc1)C(c1ccccc1)c1ccccc1` (stereo not shown) [Compound 8] displayed a melting point of 165.2 to 166.5 °C.

The molecule `O=C(Cc1ccc(Cl)c(Cl)c1)NCC(c1ccccc1)C(c1ccccc1)c1ccccc1` (stereo not shown) [Compound 9] returned a melting point of 65 to 68 °C. Moreover, in data set [1], the inhibition in vivo at 1 mg is 18%.

`O=C(Cc1ccccc1C(F)(F)F)NCC(c1ccccc1)C(c1ccccc1)c1ccccc1` (stereo not shown) [Compound 10] came in with a melting point of 109 to 111.5 °C. The inhibition in vivo at 1 mg in data set [1] came out at 19%.

In turn, `O=C(Cc1cccc(C(F)(F)F)c1)NCC(c1ccccc1)C(c1ccccc1)c1ccccc1` (stereo not shown) [Compound 11] had a melting point of 108.8 to 111.3 °C. Besides, the inhibition in vivo at 1 mg in data set [1] is 33%.

In turn, `O=C(Cc1ccc(C(F)(F)F)cc1)NCC(c1ccccc1)C(c1ccccc1)c1ccccc1` (stereo not shown) [Compound 12] registered a melting point of 119.5 to 120.3 °C. Besides, in data set [1], the inhibition in vivo at 1 mg is 36%.

`O=C(NCC(c1ccccc1)C(c1ccccc1)c1ccccc1)C(c1ccccc1)c1ccccc1` (stereo not shown) [Compound 13] had a melting point of 178.7 to 179.8 °C. Besides, the inhibition in vivo at 1 mg in data set [1] was 10%.

In turn, `O=C(Cc1ccccc1)NCC(c1ccc(Cl)cc1)C(c1ccccc1)c1ccccc1` (stereo not shown) [Compound 14] returned a melting point of 151.5 to 152.7 °C. Also, the inhibition in vivo at 1 mg in data set [1] was determined as 11%.

Turning to `O=C(Cc1ccccc1)NCC(c1ccccc1)C(c1ccc(F)cc1)c1ccc(F)cc1` (stereo not shown) [Compound 15], the “topical antiinflammatory activity in the oxazolone model (in words)” value (shortened to “topical antiinflammatory activity”) in data set [1] is reported as “moderate topical activity”.

The molecule `O=C(Cc1ccccc1Cl)NCC(c1ccccc1)C(c1ccc(F)cc1)c1ccc(F)cc1` (stereo not shown) [Compound 16] showed a melting point of 127.3 to 129.4 °C. For the same molecule, in data set [1], the inhibition in vivo at 1 mg amounted to 46% and the “topical antiinflammatory activity” value was “moderate topical activity”.

The molecule `O=C(CCc1ccccc1)NCC(c1ccccc1)C(c1ccccc1)c1ccccc1` (stereo not shown) [Compound 19] showed a melting point of 107.4 to 109 °C. Also, in data set [1], the inhibition in vivo at 1 mg worked out at 2%.

The molecule `COc1ccccc1CCC(=O)NCC(c1ccccc1)C(c1ccccc1)c1ccccc1` (stereo not shown) [Compound 20] had a melting point of 137 to 140 °C. For the same molecule, the inhibition in vivo at 1 mg in data set [1] is 32%.

Take `O=C(CCc1ccccc1Cl)NCC(c1ccccc1)C(c1ccccc1)c1ccccc1` (stereo not shown) [Compound 22]: the melting point lay in the range of 135 to 135.8 °C. Also, the inhibition in vivo at 1 mg in data set [1] was determined as 15%.

Molecule `COc1ccccc1CCC(=O)NCC(c1ccccc1)C(c1ccc(F)cc1)c1ccc(F)cc1` (stereo not shown) [Compound 23] registered a melting point of 78.9 to 80.9 °C. Besides, in data set [1], the inhibition in vivo at 1 mg worked out at 41% and the “topical antiinflammatory activity” value is “moderate topical activity”.

Regarding `O=C(CCCc1ccccc1)NCC(c1ccccc1)C(c1ccccc1)c1ccccc1` (stereo not shown) [Compound 24], the melting point is 78.1 to 81 °C. Further, in data set [1], the inhibition in vivo at 1 mg was 21%.

The molecule `O=S(=O)(Cc1ccccc1)NCC(c1ccccc1)C(c1ccccc1)c1ccccc1` (stereo not shown) [Compound 25] registered a melting point of 172.9 to 174.2 °C. The inhibition in vivo at 1 mg in data set [1] stood at 9%.

As for `Cc1ccc(S(=O)(=O)NCC(c2ccccc2)C(c2ccccc2)c2ccccc2)cc1` (stereo not shown) [Compound 26], the melting point is 139.7 to 142.1 °C. For the same molecule, the inhibition in vivo at 1 mg in data set [1] is -5%.

Take `O=C(CS(=O)(=O)c1ccccc1)NCC(c1ccccc1)C(c1ccccc1)c1ccccc1` (stereo not shown) [Compound 27]: the melting point was 186.9 to 187.5 °C. Moreover, the inhibition in vivo at 1 mg in data set [1] was 20%.

With `Cc1ccc(S(=O)(=O)CC(=O)NCC(c2ccccc2)C(c2ccccc2)c2ccccc2)cc1` (stereo not shown) [Compound 28], the melting point is 190.3 to 191.9 °C. Besides, in data set [1], the inhibition in vivo at 1 mg was determined as 28%.

Take `O=C(Cc1cccs1)NCC(c1ccccc1)C(c1ccccc1)c1ccccc1` (stereo not shown) [Compound 29, N-(2-thiophene)acetyl-2,3,3-triphenylpropylamine]: the melting point lay in the range of 130 to 132 °C. Also, in data set [1], the inhibition in vivo at 1 mg stood at 83% and the “topical antiinflammatory activity” value is listed as “equiactive with hydrocortisone; also recorded: inhibited ear swelling in a dose-dependent manner”.

The molecule `Cc1ccc(C(=O)NCC(c2ccccc2)C(c2ccccc2)c2ccccc2)s1` (stereo not shown) [Compound 30] registered a melting point of 183.5 to 185 °C. Besides, the inhibition in vivo at 1 mg in data set [1] was 21%.

Regarding `O=C(Cc1cccs1)NCC(c1ccccc1)C(c1ccc(F)cc1)c1ccc(F)cc1` (stereo not shown) [Compound 31], the melting point is 84.9 to 85.3 °C. Moreover, the inhibition in vivo at 1 mg in data set [1] was 14%.

For the molecule `Cc1ccc(CC(=O)NCC(c2ccccc2)C(c2ccc(F)cc2)c2ccc(F)cc2)s1` (stereo not shown) [Compound 32], the melting point was in the range of 127.9 to 128.9 °C. Further, in data set [1], the inhibition in vivo at 1 mg amounted to 83% and the “topical antiinflammatory activity” value is “equiactive with hydrocortisone; also recorded: inhibited ear swelling in a dose-dependent manner”.

With `O=C(Cc1cccs1)NCC(c1ccc(I)cc1)C(c1ccccc1)c1ccccc1` (stereo not shown) [Compound 33], the melting point lay within 127 to 130 °C. For the same molecule, the inhibition in vivo at 1 mg in data set [1] came to 74%.

Take `O=C(NCC(c1ccccc1)C(c1ccccc1)c1ccccc1)Nc1ccccc1Cl` (stereo not shown) [Compound 52]: the melting point was in the range of 210 to 211 °C.

In turn, `O=C(NCC(c1ccccc1)C(c1ccccc1)c1ccccc1)Oc1ccc2ccccc2c1` (stereo not shown) [Compound 59] registered a melting point of 151 to 152 °C.

The molecule `O=C(Cc1cccs1)NCC(c1ccccc1)C1c2ccccc2-c2ccccc21` (stereo not shown) [Compound 71] came in with a melting point of 128.7 to 130.5 °C.

In turn, `O=C(Cc1ccccc1)NCC(c1ccccc1)C1c2ccccc2CCc2ccccc21` (stereo not shown) [Compound 73] yielded a melting point of 172.7 to 174.6 °C.

As for `O=C(Cc1ccccc1)NCC1(c2ccccc2)CC1(c1ccccc1)c1ccccc1` (stereo not shown) [Compound 78], the melting point fell in the range of 150 to 152 °C.

In turn, `CC(C)(C)C(=O)NCC1(c2ccccc2)CC1(c1ccccc1)c1ccccc1` (stereo not shown) [Compound 86] had a melting point of 121 to 122 °C.

`O=C(Cc1ccc(Cl)cc1)NCC(c1ccc2c(c1)OCO2)C(c1ccccc1)c1ccccc1` (stereo not shown) [Compound 98]: the “topical antiinflammatory activity” value in data set [1] is “equiactive with hydrocortisone”.

On to `C[C@]12CCC(=O)C=C1CC[C@@H]1[C@@H]2[C@@H](O)C[C@@]2(C)[C@H]1CC[C@]2(O)C(=O)CO` [hydrocortisone, reference compound], for which, in data set [1], the inhibition in vivo at 1 mg is 75 to 85%.

Source of the values: US6372779B1, “Anti-inflammatory compounds” (Ortho Pharmaceutical Corporation, priority 1997, dated 2002).
